Measurements reported in patent publication US5164406A, “Method for enhancing transdermal penetration and compositions useful therein” (priority 1989, dated 1992).
Where a name gives a salt, the structure may show the parent alone. Read-outs that look alike come from different tables or passages of the source.

Experiments:
[1] = general statement; cited from earlier work
[2] = for Increase in penetration relative to control: multiple of average control determination
Experimental: Polyoxyethylene stearyl ethers, 3 wt. %
Polyoxypropylene fatty alcohol ethers, 3 wt. %
Deionized water, 94 wt. %
Further, in all cases, unless otherwise noted, the tests were carried out at 37° C. and results were compared to penetration data for the same material in the oil/water emulsion base. Moreover, all percentages of composition components recited are, unless otherwise indicated, weight percent (wt. %) and are based upon the total weight of the composition.
The test method is carried out as follows:
A. Prior to testing, rats are routinely acclimated to the laboratory environment for seven days and gross observations are made to ensure good health of the animals to be tested.
B. Female Sprague Dawley rats (190-240 gm) are selected for testing and identified by cage label and ear tag number.
C. Diffusion Cell Preparation.
1. An O-ring is placed on a standard Franz Diffusion Cell. A stir bar is placed in the receptor compartment. Each cell is filled with approximately 4.5 ml sterile physiologic saline (receptor compartments are calibrated to contain 5.0 ml).
2. The jacketed diffusion cells are maintained at 37° C.±1° (or alternatively desired temperature) using an external water bath and a circulating pump.
D. Skin Section Preparation and Mounting
1. Test animals are sacrificed by intraperitoneal injection of 0.4 ml/100 gm. body weight sodium pentobarital (1 gm/ml).
2. The backs are lightly shaved using electric hair clippers.
3. A section of skin, measuring approximately 8 cm long by 7 cm wide, is removed from the back of each rat using a No. 20 scalpel assuring that the skin section is free from subcutaneous fat.
4. A piece of the skin section is mounted over an O-ring on the diffusion cell, epidermal side facing up. The donor compartment is placed on top of the skin section making a complete seal over the skin. A clamp is used to secure the skin section in place.
5. Air bubbles that collect under the skin are removed by inverting the diffusion cell and tapping it gently. The receptor compartment is filled with sterile physiologic saline to 5.0 ml.
E. Application of Test Materials
1. Test and control materials are applied to the skin using s syringe or spatula. The material is spread evenly and completely over the exposed skin surface using the tip of the syringe/spatula.
1. An HPLC carousel is loaded with microvials. Springs and inserts are placed into the microvials.
2. Receptor compartments are sampled at desired time intervals using a microliter (μl) syringe. The sample (approximately 160 μl) is placed into the insert. The microvial is sealed with a plastic cap.
3. When multiple sampling is required, the receptor compartment is replenished with sterile physiologic saline to maintain a 5.0 ml volume.
Samples are analyzed using standard analytical techniques. The presence of test material in the samples is indicative of transdermal penetration.

[3] = Human skin (in vitro) transdermal penetration; format: in vitro ADME; conditions: Table 4
Source text: The test procedure is as described for rat skin studies with the exception that normal excised human skin samples obtained from breast reduction surgery are utilized.
As shown by the results of Table 4, imidazole enhanced xylometazoline penetration through human skin 5.3 fold.

[4] = Pig skin (in vitro) transdermal penetration; format: in vitro ADME, Yucatan miniature pig
Experimental: The test procedure is as described for rat skin studies with the exception that excised pig skin samples from Yucatan miniature pigs are utilized.
To address this issue, in vitro skin penetration of tripelennamine (TPL) in 2 saturated aqueous solutions, was measured using pig skin in accordance with the Pig Skin (in vitro) procedure earlier outlined. One solution contained 0.5% IMI. The other solution served as an aqueous control (buffered with NaOH to the same pH as the IMI containing solution).
Since all skin sections are dermatomed to 380 microns, h is a constant. In each composition of Table 5, the vehicle was saturated with the pharmacologic agent. Therefore, the "leaving tendency", or the thermodynamic activity of the pharmacologic agent in the vehicle, remained unchanged (K is the same for both compositions). this means that D must increase in order to explain the 3-fold increase in transdermal penetration. This is indicative of a true enhancement effect of topically applied IMI. The results of Table 5, substantiate that IMI acts as a true skin penetration enhancer. […] This may be one reason why use of a transdermal penetration enhancing amount of a selected imidazole or imidazole derivative of the present invention, in conjunction with a pharmacologically active agent whose transdermal penetration is capable of being enhanced, affords the advantageous enhancement of penetration achieved by the present invention.

[5] = cited from earlier work
[6] = B + 1% drug + 0.5% IMI, Table 3
[7] = B + 5% TPL + 5% XYL, Table 3 Study I
[8] = B + 5% TRP + 5% XYL, Table 3 Study II

In the case of Cn1ccn(C)c1=O [compound IIa], the Heat stability [1] is given as “heat stable”.
For Cc1cc(C(C)(C)C)cc(C)c1CC1=NCCN1 [XYL, XYLO[…], HCL, reference compound], the “Penetration enhanced by imidazole” value ([2]; 1% drug with 0.5% imidazole, Table 3 Studies V and VI) was 610%, the “24 hour penetration (total micrograms base)” value (shortened to “24 hour penetration”) [2, 6] was 613 micrograms base and the “24 hour penetration” value [2, 7] was 444 micrograms base. The “24 hour penetration” value [2, 8] was 1053 micrograms base, the “Penetration of XYL” value ([2]; combination of TPL and XYL vs XYL alone, Table 3 Study I) was “remained fairly constant” and the “Increase in transdermal penetration” value ([2]; combination of TRP and XYL, Table 3 Study II) was 90%. The “24 hour penetration” value ([2]; control: 1% of the drug alone in B, Table 3) was 100 micrograms base, the “24 hour penetration” value ([2]; control: 5% of the drug alone in B, Table 3) was 544 micrograms base and the “Increase in penetration relative to control” value [2, 6] was 6.1. The “Increase in penetration relative to control” value [2, 7] was 0.8, the “Increase in penetration relative to control” value [2, 8] was 1.9 and the “Imidazole enhanced xylometazoline penetration through human skin” value ([3]; 2% XYL with 0.5% imidazole) was 5.3 fold. The “24 hour penetration” value ([3]; B + 2% XYL + 0.5% IMI) was 203 micrograms base, the “24 hour penetration” value ([3]; control: B + 2% XYL) was 38 micrograms base and the “Increase in penetration relative to control” value ([3]; multiple of average control determination, B + 2% XYL + 0.5% IMI) was 5.3.
With CN(C)CCN(Cc1ccccc1)c1ccccn1 [TPL, TRIPELENNAMINE HCL, reference compound] the “24 hour penetration” value [2] was 196 micrograms base, the “Increase in TPL penetration” value [2] was 270% and the “Penetration of TPL enhanced by” value [2] was 1190%. For the same compound, the “Increase in skin permeation of TPL” value [4] was “approximately 3 fold”, the “24 hour penetration” value ([4]; aqueous control: saturated TPL/H2O, buffered with NaOH to the same pH, Table 5) was 132 micrograms base and the “Increase in penetration relative to control” value ([4]; multiple of average control determinations, saturated TPL/H2O + 0.5% IMI, Table 5) was 2.75. The “24 hour penetration” value ([4]; saturated TPL/H2O + 0.5% IMI, Table 5) was 363 micrograms base, the Skin irritation ([5]; IPM at 0.5%) was “little or no skin irritation” and the Skin irritation ([5]; IPM levels sufficient to enhance transdermal penetration) was “generally are irritating to skin”.
For Cn1cc[n+](C)c1 [Compound Ia], the Heat stability [1] is given as “unstable to heat”.
